The subject of data set [1] is SMN2 minigene (full length SMN2 minigene mRNA containing SMN2 exon 7). In words: SMN2 minigene mRNA splicing RT-qPCR assay in cultured cells. Format: cell-based, human. As to conditions: Homo sapiens, HEK293-H, read-out: EC1.5x for production of full length SMN2 mRNA. A digest of the protocol:
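Lysates → one-step RT-qPCR, minigene-specific primers (0.4 μM final) + GAPDH multiplex, 40 cycles. FL/GAPDH vs DMSO; EC1.5x, star-binned.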
For orientation: In qPCR the cycle at which signal appears reflects the starting amount.

Data set [2] concerns Smn protein. The experiment in a line: Smn protein assay in cultured cells (SMN HTRF). The format is cell-based, human. As to conditions: 48 hours; for EC1.5x (concentration giving 1.5-fold Smn protein increase): SMA Type 1 patient fibroblast cells (GM03813), 7-point concentration curve, SMN HTRF, concentration producing 1.5 times Smn protein vs DMSO vehicle control, read-out: EC1.5x for Smn protein expression; for maximum fold (Fold) increase of Smn protein: SMA patient fibroblast cells, 7-point concentration data, fold increase relative to vehicle control (SMN HTRF). A digest of the protocol: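 Smn in SMA fibroblast lysates, measured by anti-SMN HTRF after 48 h compound exposure; EC1.5x from fold change over vehicle.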
In general terms: In TR-FRET formats the signal depends on donor and acceptor labels being close together.

Where [3] appears, read: HEK293H cells stably transfected with SMN2-A minigene, 24 hours, 7-point concentration curve, 1.5-fold relative to vehicle-treated cells.

Read-outs that look alike come from different tables or passages of the source.

Turning to `COc1ccc(-c2cc3ccc(N4CCN[C@@H](C)C4)cc3oc2=O)cc1OC` [Compound 383, 3-(3,4-dimethoxyphenyl)-7-[(3S)-3-methylpiperazin-1-yl]-2H-chromen-2-one], the melting point was in the range of 140 to 143 °C. Further, the EC (1.5-fold) in data set [1] (setting [3]) fell in the range of 0.1 to 0.3 µM. Moreover, in data set [2], the EC1.5x (concentration giving 1.5-fold Smn protein increase) was 1000 to 3000 nM; the “maximum fold (Fold) increase of Smn protein” value (“maximum fold (Fold) increase” below) is “**** (fold increase between >1.5 and ≤1.65)”.

`Cc1ccc2nc(-c3cc4ccc(N5CCC(N)CC5)cc4oc3=O)cn2c1` [Compound 219, 7-(4-aminopiperidin-1-yl)-3-(6-methylimidazo[1,2-a]pyridin-2-yl)-2H-chromen-2-one] displayed a melting point of 250 to 252 °C. Also, the EC (1.5-fold) in data set [1] (setting [3]) lay in the range of 3 to 30 µM. For the same molecule, the “maximum fold (Fold) increase” value in data set [2] is recorded as “* (maximum fold increase of ≤1.2)”.

The molecule `O=c1oc2cc(N3CCNCC3)ccc2cc1-c1cn2cccc(C(F)(F)F)c2n1` [Compound 209, 7-(piperazin-1-yl)-3-[8-(trifluoromethyl)imidazo[1,2-a]pyridin-2-yl]-2H-chromen-2-one] came in with a melting point of 249 to 252 °C. Further, the EC (1.5-fold) in data set [1] (setting [3]) is 0.3 to 1 µM. For the same molecule, the “maximum fold (Fold) increase” value in data set [2] was “* (maximum fold increase of ≤1.2)”.

Take `Cc1cn2cc(-c3cc4ccc(N[C@H]5CCN(C)C5)cc4oc3=O)nc2c(C)n1` [Compound 657, 3-(6,8-dimethylimidazo[1,2-a]pyrazin-2-yl)-7-{[(3S)-1-methylpyrrolidin-3-yl]amino}-2H-chromen-2-one]: the melting point is 223 to 233 °C. Also, in data set [1] (setting [3]), the EC (1.5-fold) was less than 0.1 µM. Also, in data set [2], the EC1.5x (concentration giving 1.5-fold Smn protein increase) is less than 300 nM; the “maximum fold (Fold) increase” value is “**** (fold increase between >1.5 and ≤1.65)”.

Regarding `O=c1oc2cc(N3CCNCC3)ccc2cc1-c1nc2ccccc2[nH]1` [Compound 313, 3-(1H-benzimidazol-2-yl)-7-(piperazin-1-yl)-2H-chromen-2-one], the melting point was in the range of 254 to 258 °C. The EC (1.5-fold) in data set [1] (setting [3]) lay within 0.3 to 1 µM. Further, in data set [2], the “maximum fold (Fold) increase” value is “* (maximum fold increase of ≤1.2)”.

The molecule `Cc1cn2cc(-c3cc4ccc(N5CCC(N(C)C)CC5)cc4oc3=O)nc2c(C)n1` [Compound 921, 7-[4-(dimethylamino)piperidin-1-yl]-3-(6,8-dimethylimidazo[1,2-a]pyrazin-2-yl)-2H-chromen-2-one] gave a melting point of 189 to 193 °C. In data set [1] (setting [3]), the EC (1.5-fold) was less than 0.1 µM. Moreover, in data set [2], the EC1.5x (concentration giving 1.5-fold Smn protein increase) is less than 300 nM; the “maximum fold (Fold) increase” value is “**** (fold increase between >1.5 and ≤1.65)”.

`CN1CCN(c2ccc3cc(-c4ccn(C)n4)c(=O)oc3c2)CC1` [Compound 73, 7-(4-methylpiperazin-1-yl)-3-(1-methyl-1H-pyrazol-3-yl)-2H-chromen-2-one] came in with a melting point of 183 to 186 °C. Moreover, the EC (1.5-fold) in data set [1] (24 h) was 3 to 30 µM. Further, in data set [2], the “maximum fold (Fold) increase” value is “** (fold increase between >1.2 and ≤1.35)”.

Take `Cc1cn2cc(-c3cc4ccc(C5CCN(C)CC5)cc4oc3=O)ccc2n1` [Compound 826, 3-(2-methylimidazo[1,2-a]pyridin-6-yl)-7-(1-methylpiperidin-4-yl)-2H-chromen-2-one]: the melting point was 204 to 206 °C. In addition, in data set [1] (setting [3]), the EC (1.5-fold) was less than 0.1 µM. Further, in data set [2], the EC1.5x (concentration giving 1.5-fold Smn protein increase) is less than 300 nM and the “maximum fold (Fold) increase” value is reported as “***** (fold increase >1.65)”.

Turning to `CN1CCC(c2ccc3cc(-c4ccc5nn(C)cc5c4)c(=O)oc3c2)CC1` [Compound 862, 3-(2-methyl-2H-indazol-5-yl)-7-(1-methylpiperidin-4-yl)-2H-chromen-2-one], the melting point fell in the range of 215 to 218 °C. Moreover, in data set [1] (setting [3]), the EC (1.5-fold) was less than 0.1 µM. Besides, in data set [2], the EC1.5x (concentration giving 1.5-fold Smn protein increase) was in the range of 300 to 1000 nM and the “maximum fold (Fold) increase” value was “***** (fold increase >1.65)”.

`O=c1oc2cc(N3CCCNCC3)ccc2cc1-c1cn2cccc(F)c2n1` [Compound 357, 7-(1,4-diazepan-1-yl)-3-(8-fluoroimidazo[1,2-a]pyridin-2-yl)-2H-chromen-2-one] returned a melting point of 210 to 213 °C. For the same molecule, in data set [1] (setting [3]), the EC (1.5-fold) lay within 0.1 to 0.3 µM. Moreover, in data set [2], the “maximum fold (Fold) increase” value was “*** (fold increase between >1.35 and ≤1.5)”.

The molecule `O=c1oc2cc(N3CCNCC3)ccc2cc1-c1cn2ccsc2n1` [Compound 88, 3-(imidazo[2,1-b][1,3]thiazol-6-yl)-7-(piperazin-1-yl)-2H-chromen-2-one] came in with a melting point of 275 to 280 °C. Besides, the EC (1.5-fold) in data set [1] (setting [3]) is less than 0.1 µM. In addition, in data set [2], the EC1.5x (concentration giving 1.5-fold Smn protein increase) is 1000 to 3000 nM; the “maximum fold (Fold) increase” value is “*** (fold increase between >1.35 and ≤1.5)”.

`Cc1cn2cc(-c3cc4ccc(C5CCN(CC(C)C)CC5)cc4oc3=O)nc2c(C)n1` [Compound 914, 3-(6,8-dimethylimidazo[1,2-a]pyrazin-2-yl)-7-[1-(2-methylpropyl)piperidin-4-yl]-2H-chromen-2-one] gave a melting point of 191 to 198 °C. The EC (1.5-fold) in data set [1] (setting [3]) is less than 0.1 µM. For the same molecule, in data set [2], the EC1.5x (concentration giving 1.5-fold Smn protein increase) is less than 300 nM; the “maximum fold (Fold) increase” value was “**** (fold increase between >1.5 and ≤1.65)”.

In turn, `Cc1nccn2cc(-c3cc4ccc(N5CCCN(C)CC5)cc4oc3=O)nc12` [Compound 558, 7-(4-methyl-1,4-diazepan-1-yl)-3-(8-methylimidazo[1,2-a]pyrazin-2-yl)-2H-chromen-2-one] returned a melting point of 180 to 182 °C. For the same molecule, in data set [1] (setting [3]), the EC (1.5-fold) is less than 0.1 µM. In data set [2], the EC1.5x (concentration giving 1.5-fold Smn protein increase) is 300 to 1000 nM; the “maximum fold (Fold) increase” value was “**** (fold increase between >1.5 and ≤1.65)”.

`Cc1cccc(-c2cc3ccc(N4CCN[C@@H](C)C4)cc3oc2=O)c1` [Compound 512, 3-(3-methylphenyl)-7-[(3S)-3-methylpiperazin-1-yl]-2H-chromen-2-one] yielded a melting point of 101 to 103 °C. Also, the EC (1.5-fold) in data set [1] (setting [3]) lay in the range of 1 to 3 µM. Also, the “maximum fold (Fold) increase” value in data set [2] is on record as “* (maximum fold increase of ≤1.2)”.

In turn, `CC(CO)NCc1ccc2cc(-c3nc4c(Cl)cccc4s3)c(=O)oc2c1` (stereo not shown) [Compound 270, 3-(4-chloro-1,3-benzothiazol-2-yl)-7-{[(1-hydroxypropan-2-yl)amino]methyl}-2H-chromen-2-one] returned a melting point of 186 to 190 °C. The EC (1.5-fold) in data set [1] (setting [3]) was 1 to 3 µM. In data set [2], the “maximum fold (Fold) increase” value was “** (fold increase between >1.2 and ≤1.35)”.

Take `CN1CCN(c2ccc3cc(-c4cn5cnccc5n4)c(=O)oc3c2)CC1` [Cpd 458, 3-(imidazo[1,2-c]pyrimidin-2-yl)-7-(4-methylpiperazin-1-yl)-2H-chromen-2-one]: the melting point is 253 to 255 °C. For the same molecule, in data set [1] (setting [3]), the EC (1.5-fold) fell in the range of 0.3 to 1 µM. Besides, the “maximum fold (Fold) increase” value in data set [2] is “*** (fold increase between >1.35 and ≤1.5)”.

`O=c1oc2cc(N3CCNCC3)ccc2cc1-c1cn2cc(F)cc(F)c2n1` [Compound 532, 3-(6,8-difluoroimidazo[1,2-a]pyridin-2-yl)-7-(piperazin-1-yl)-2H-chromen-2-one] yielded a melting point of 276 to 286 °C. Also, the EC (1.5-fold) in data set [1] (setting [3]) is 0.3 to 1 µM. Besides, the “maximum fold (Fold) increase” value in data set [2] is on record as “* (maximum fold increase of ≤1.2)”.

Consider `Cc1cn2cc(-c3cc4ccc(O[C@@H]5CCN(C)C5)cc4oc3=O)nc2c(C)n1` [Compound 889, 3-(6,8-dimethylimidazo[1,2-a]pyrazin-2-yl)-7-{[(3R)-1-methylpyrrolidin-3-yl]oxy}-2H-chromen-2-one], for which the melting point was 195 to 202 °C. Further, the EC (1.5-fold) in data set [1] (setting [3]) is less than 0.1 µM. Also, in data set [2], the EC1.5x (concentration giving 1.5-fold Smn protein increase) is less than 300 nM and the “maximum fold (Fold) increase” value is “***** (fold increase >1.65)”.

`CN1CCCN(c2ccc3cc(-c4cc5ccccn5n4)c(=O)oc3c2)CC1` [Compound 193, 7-(4-methyl-1,4-diazepan-1-yl)-3-(pyrazolo[1,5-a]pyridin-2-yl)-2H-chromen-2-one] gave a melting point of 159 to 163 °C. Further, the EC (1.5-fold) in data set [1] (setting [3]) is 0.1 to 0.3 µM. Besides, in data set [2], the EC1.5x (concentration giving 1.5-fold Smn protein increase) was in the range of 3000 to 10000 nM; the “maximum fold (Fold) increase” value was “** (fold increase between >1.2 and ≤1.35)”.

On to `O=c1oc2cc(N3CCNCC3)ccc2cc1-c1cccnc1C(F)(F)F` [Cpd 124, 7-(piperazin-1-yl)-3-[2-(trifluoromethyl)pyridin-3-yl]-2H-chromen-2-one], for which the melting point lay in the range of 197 to 200 °C. The EC (1.5-fold) in data set [1] (setting [3]) is 0.3 to 1 µM. The “maximum fold (Fold) increase” value in data set [2] is “** (fold increase between >1.2 and ≤1.35)”.

On to `Cc1ccc2nc(-c3cc4ccc(CNC(C)CO)cc4oc3=O)cn2c1` (stereo not shown) [Compound 251, 7-{[(1-hydroxypropan-2-yl)amino]methyl}-3-(6-methylimidazo[1,2-a]pyridin-2-yl)-2H-chromen-2-one], for which the melting point is 224 to 227 °C. Moreover, the EC (1.5-fold) in data set [1] (setting [3]) was in the range of 3 to 30 µM. Also, in data set [2], the “maximum fold (Fold) increase” value was “* (maximum fold increase of ≤1.2)”.

The molecule `Cc1cc2oc(-c3cc4ccc(N5CCN(C(C)C)CC5)cc4oc3=O)cc2c(C)n1` [Compound 840, 3-(4,6-dimethylfuro[3,2-c]pyridin-2-yl)-7-[4-(propan-2-yl)piperazin-1-yl]-2H-chromen-2-one] displayed a melting point of 186 to 191 °C. In data set [1] (setting [3]), the EC (1.5-fold) fell in the range of 0.3 to 1 µM. In addition, the “maximum fold (Fold) increase” value in data set [2] is recorded as “* (maximum fold increase of ≤1.2)”.

In general, melting point refers to the temperature, or range, at which the solid turns liquid.

Source of the values: patent USRE47689E1, “Compounds for treating spinal muscular atrophy” (PTC Therapeutics, Inc., priority 2011, dated 2019).
